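Step 1: Grow cells in 96-well plates. Step 2: Expose to compound for 48 hours at 5 concentrations. Step 3: Interpolate endpoints linearly; if unreached, use highest concentration. GI50: concentration for 50% inhibition of growth. The concentration for full growth arrest is given as TGI.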
Assays:
Test in all cases: inhibition of tumour cell growth, NCI panel, 48 h
MALME-3M melanoma = system: MALME-3M melanoma
PC-3 prostate = system: PC-3 prostate
CCRF-CEM leukemia = system: CCRF-CEM leukemia
KM12 colon = system: KM12 colon
U251 CNS = system: U251 CNS
SF-539 CNS = system: SF-539 CNS
NCI-H23 lung = system: NCI-H23 lung
NCI-H460 lung = system: NCI-H460 lung
M14 melanoma = system: M14 melanoma
UACC-62 melanoma = system: UACC-62 melanoma
MDA-MB-435 = system: MDA-MB-435
HCC-2998 colon = system: HCC-2998 colon
UACC-257 melanoma = system: UACC-257 melanoma
HS 578T breast = system: HS 578T breast
NCI-H522 lung = system: NCI-H522 lung
OVCAR-3 ovarian = system: OVCAR-3 ovarian
DU-145 prostate = system: DU-145 prostate
HT29 colon = system: HT29 colon
HCT-15 colon = system: HCT-15 colon
MDA-MB-231 breast = system: MDA-MB-231 breast
OVCAR-4 ovarian = system: OVCAR-4 ovarian
NCI-H226 lung = system: NCI-H226 lung
SK-MEL-2 melanoma = system: SK-MEL-2 melanoma
RPMI-8226 leukemia = system: RPMI-8226 leukemia
LOX IMVI melanoma = system: LOX IMVI melanoma
HCT-116 colon = system: HCT-116 colon
ACHN renal = system: ACHN renal
K-562 leukemia = system: K-562 leukemia
T-47D breast = system: T-47D breast
UO-31 renal = system: UO-31 renal
CAKI-1 renal = system: CAKI-1 renal
SN12C renal = system: SN12C renal
786-0 renal = system: 786-0 renal
RXF 393 renal = system: RXF 393 renal
EKVX NSCLC = system: EKVX NSCLC
SF-295 CNS = system: SF-295 CNS
NCI/ADR-RES ovarian = system: NCI/ADR-RES ovarian
A498 renal = system: A498 renal
A549 NSCLC = system: A549 NSCLC
MOLT-4 leukemia = system: MOLT-4 leukemia
IGROV1 ovarian = system: IGROV1 ovarian
SK-OV-3 ovarian = system: SK-OV-3 ovarian
SK-MEL-28 melanoma = system: SK-MEL-28 melanoma
SNB-75 CNS = system: SNB-75 CNS
HOP-62 NSCLC = system: HOP-62 NSCLC
MCF7 breast = system: MCF7 breast
BT-549 breast = system: BT-549 breast
HL-60(TB) leukemia = system: HL-60(TB) leukemia
SF-268 CNS = system: SF-268 CNS
SNB-19 CNS = system: SNB-19 CNS
SW-620 colon = system: SW-620 colon
SK-MEL-5 melanoma = system: SK-MEL-5 melanoma
TK-10 renal = system: TK-10 renal
SR leukemia = system: SR leukemia
COLO 205 colon = system: COLO 205 colon
OVCAR-5 ovarian = system: OVCAR-5 ovarian
OVCAR-8 ovarian = system: OVCAR-8 ovarian

**Q.** What does the source list for CC(=O)C1=C(O)C=C2Oc3c(C(=O)/C=C/c4c(Cl)cccc4Cl)c(O)c(C)c(O)c3[C@]2(C)C1=O?
**A.** GI50 (MALME-3M melanoma): 2100 nM; TGI (MALME-3M melanoma): 4960 nM; GI50 (PC-3 prostate): 596 nM; TGI (PC-3 prostate): 2490 nM; GI50 (CCRF-CEM leukemia): 573 nM; TGI (CCRF-CEM leukemia): 5430 nM; GI50 (KM12 colon): 1150 nM; TGI (KM12 colon): 3990 nM; GI50 (U251 CNS): 754 nM; TGI (U251 CNS): 4090 nM; GI50 (SF-539 CNS): 2190 nM; TGI (SF-539 CNS): 4910 nM; GI50 (NCI-H23 lung): 1230 nM; TGI (NCI-H23 lung): 5820 nM; GI50 (NCI-H460 lung): 1170 nM; TGI (NCI-H460 lung): 4460 nM; GI50 (M14 melanoma): 961 nM; TGI (M14 melanoma): 3830 nM; GI50 (UACC-62 melanoma): 677 nM; TGI (UACC-62 melanoma): 2800 nM; GI50 (MDA-MB-435): 1810 nM; TGI (MDA-MB-435): 3820 nM; GI50 (HCC-2998 colon): 2570 nM; TGI (HCC-2998 colon): 5260 nM; GI50 (UACC-257 melanoma): 2010 nM; TGI (UACC-257 melanoma): 6820 nM; GI50 (HS 578T breast): 2390 nM; TGI (HS 578T breast): 7860 nM; GI50 (NCI-H522 lung): 460 nM; TGI (NCI-H522 lung): 2770 nM; GI50 (OVCAR-3 ovarian): 1120 nM; TGI (OVCAR-3 ovarian): 4220 nM; GI50 (DU-145 prostate): 966 nM; TGI (DU-145 prostate): 6310 nM; GI50 (HT29 colon): 1730 nM; TGI (HT29 colon): 6230 nM; GI50 (HCT-15 colon): 668 nM; TGI (HCT-15 colon): 2940 nM; GI50 (MDA-MB-231 breast): 1300 nM; TGI (MDA-MB-231 breast): 5720 nM; GI50 (OVCAR-4 ovarian): 3190 nM; TGI (OVCAR-4 ovarian): 11300 nM; GI50 (NCI-H226 lung): 2470 nM; TGI (NCI-H226 lung): 5140 nM; GI50 (SK-MEL-2 melanoma): 640 nM; TGI (SK-MEL-2 melanoma): 2870 nM; GI50 (RPMI-8226 leukemia): 500 nM; TGI (RPMI-8226 leukemia): 1770 nM; GI50 (LOX IMVI melanoma): 1130 nM; TGI (LOX IMVI melanoma): 3640 nM; GI50 (HCT-116 colon): 536 nM; TGI (HCT-116 colon): 2700 nM; GI50 (ACHN renal): 1640 nM; TGI (ACHN renal): 8070 nM; GI50 (K-562 leukemia): 619 nM; TGI (K-562 leukemia): 15000 nM; GI50 (T-47D breast): 380 nM; TGI (T-47D breast): 2410 nM; GI50 (UO-31 renal): 1920 nM; TGI (UO-31 renal): 7590 nM; GI50 (CAKI-1 renal): 832 nM; TGI (CAKI-1 renal): 8920 nM; GI50 (SN12C renal): 527 nM; TGI (SN12C renal): 1760 nM; GI50 (786-0 renal): 1710 nM; TGI (786-0 renal): 5440 nM; GI50 (RXF 393 renal): 2320 nM; TGI (RXF 393 renal): 5030 nM; GI50 (EKVX NSCLC): 1630 nM; TGI (EKVX NSCLC): 7240 nM; GI50 (SF-295 CNS): 634 nM; TGI (SF-295 CNS): 3170 nM; GI50 (NCI/ADR-RES ovarian): 786 nM; TGI (NCI/ADR-RES ovarian): 5210 nM; GI50 (A498 renal): 1600 nM; TGI (A498 renal): 3660 nM; GI50 (A549 NSCLC): 1580 nM; TGI (A549 NSCLC): 5530 nM; GI50 (MOLT-4 leukemia): 666 nM; TGI (MOLT-4 leukemia): 8570 nM; GI50 (IGROV1 ovarian): 1560 nM; TGI (IGROV1 ovarian): 9370 nM; GI50 (SK-OV-3 ovarian): 2570 nM; TGI (SK-OV-3 ovarian): 7400 nM; GI50 (SK-MEL-28 melanoma): 1320 nM; TGI (SK-MEL-28 melanoma): 3830 nM; GI50 (SNB-75 CNS): 2120 nM; TGI (SNB-75 CNS): 4760 nM; GI50 (HOP-62 NSCLC): 1580 nM; TGI (HOP-62 NSCLC): 5080 nM; GI50 (MCF7 breast): 436 nM; TGI (MCF7 breast): 2750 nM; GI50 (BT-549 breast): 1430 nM; TGI (BT-549 breast): 5280 nM; GI50 (HL-60(TB) leukemia): 849 nM; TGI (HL-60(TB) leukemia): 7080 nM; GI50 (SF-268 CNS): 856 nM; TGI (SF-268 CNS): 3730 nM; GI50 (SNB-19 CNS): 1080 nM; TGI (SNB-19 CNS): 5930 nM; GI50 (SW-620 colon): 640 nM; TGI (SW-620 colon): 3130 nM; GI50 (SK-MEL-5 melanoma): 1500 nM; TGI (SK-MEL-5 melanoma): 3750 nM; GI50 (TK-10 renal): 728 nM; TGI (TK-10 renal): 5170 nM; GI50 (SR leukemia): 1520 nM; TGI (SR leukemia): 7700 nM; GI50 (COLO 205 colon): 2340 nM; TGI (COLO 205 colon): 5250 nM; GI50 (OVCAR-5 ovarian): 3090 nM; TGI (OVCAR-5 ovarian): 8130 nM; GI50 (OVCAR-8 ovarian): 533 nM; TGI (OVCAR-8 ovarian): 2060 nM
